Assay results as given in patent publication US20220378901A1, “APPLICATION OF PSEUDOMONAS AERUGINOSA VACCINE IN RESPIRATORY DISEASE” (Sichuan University, priority 2019, published 2022).

Legend:
SKLBPA1 [1] = test: Immunoprotection against SKLBPA1 pulmonary infection; type: in vivo, Pseudomonas aeruginosa
Excerpt: . […] One week after the last immunization, SKLBPA1 (which is the homologous strain of vaccine bacteria) and clinical carbapenem-resistant Pseudomonas aeruginosa (CRPA) C58 (from sputum, the drug sensitivity information of clinical C58 is shown in Table 7, which is different from the serotype of vaccine bacteria) are used for challenge.

SKLBPA1 [2] = test: Efficacy against infection of vaccine alone or in combination with antibiotics; conditions: 24 h after infection; no immunization; ATM 4 times (2 h, 4 h, 6 h, 8 h, 100 mg/kg/time); Model 24 h 6.86 ± 0.45
Experimental: The mice in the immunization group are subcutaneously immunized with SKLB-V1 in the groin at 1×10^7 CFU/100 μL, with 3 injections. […] 24 h after the last immunization, the bacteria SKLBPA1 are used for challenge.

## C[C@H]1[C@H](NC(=O)/C(=N\OC(C)(C)C(=O)O)c2csc(N)n2)C(=O)N1S(=O)(=O)O [Aztreonam, aztreonam]
SKLBPA1 [1]; in vivo
  Bacterial Load log10CFU: 4.31 ± 1.27 log10CFU
SKLBPA1 [1]; mice lung tissue, 4 h after infection, SKLB-V1 1×10^7 CFU s.c. at 0, 1st, 2nd weeks, aztreonam 100 mg/kg i.p. from 2 h, model 4.50 ± 1.05
  Bacterial Load log10CFU: 4.68 ± 0.22 log10CFU
SKLBPA1 [2]
  Lung LOG10CFU: 4.11 ± 0.44 LOG10CFU
